Columns and labels:
MCF-7 = conditions: cited from earlier work
cellular proteins [1] = assay: Degradation of radiolabeled cellular proteins; assay type: cell-based; conditions: starved cells
Procedure: Cells were labeled with […] methionine and cysteine (20 μCi/ml) for 16 h. This was followed extensive washing and further incubation in a medium containing 2 mM of the two unlabeled amino acids for 8 h. Degradation rates were assessed by determining the release of labeled amino acids to the incubation medium relative to the radioactivity remained in the cellular proteins (using Trichloroacetic acid precipitation to separate between the two) (Gropper et al., 1991, JPEN J Parenter Enteral Nutr 15, 48-53.).

[2] = Amino acids level measurement (LC-MS); assay type: cell-based; conditions: Torin1-treated cells
Procedure: Metabolic analysis was carried out as previously described (MacKay et al., 2015). Briefly, cells were rapidly washed 3 times with ice-cold PBS and extracted with an aqueous solution of 50% Methanol, and 30% Acetonitrile. Samples were centrifuged at 16,000×g for 10 min at 4° C., and the supernatants were analyzed using HPLC-MS (Q-Exactive Orbitrap Mass Spectrometer (Thermo Scientific) coupled to Thermo Scientific UltiMate 3000 HPLC system). The HPLC setup consisted of a ZIC-pHILIC column (SeQuant, 150×2.1 mm, 5 μm, Merck) with a ZIC-pHILIC guard column (SeQuant, 20×2.1 mm). The aqueous mobile phase solvent was 20 mM ammonium carbonate adjusted to pH 9.4 with 0.1% ammonium hydroxide. The organic mobile phase was acetonitrile. […] All metabolites were detected across a mass range of 75-1,000 m/z using the Q-Exactive mass spectrometer at a resolution of 35,000 (at 200 m/z) with electrospray ionization and polarity switching mode. […] The peak areas of different Amino Acids were determined using Thermo TraceFinder software through which metabolites were identified by the exact mass of the singly charged ion and by known retention time on the HPLC column. Commercially available standard compounds had been analyzed before to determine ion masses and retention times on the ZIC-pHILIC column. Protein quantitation based on the Lowry method was performed for normalization.

26S proteasome = assay: Proteasome subcellular localization in cultured cells (immunofluorescence, western blot of nuclear fractions); assay type: cell-based; conditions: for starvation-induced proteasome translocation from the nucleus to the cytosol: substance added to amino acid starvation medium, 8 h
Procedure: (§1) Cells were seeded on glass cover slips for 36 h. Following the indicated treatments, they were fixed with 4% PFA for 15 min, washed with (phosphate-buffered saline) PBS and incubated in PBS containing 10% goat serum for 1h at room temperature, followed by 2 h incubation with the indicated primary antibody. Following extensive wash with PBS, the fixed cells were incubated with the relevant secondary antibody for 1 h, washed and mounted. Images were acquired using Zeiss LSM 700 confocal microscope (Zeiss, Oberkochen, Germany).
The proteasome subunits α6, β1, and PSMD1 were visualized via indirect immunofluorescence, using primary and secondary antibodies listed under Key Resources Table. To observe the proteasome in live cells, we expressed the cDNAs of the β4, Rpn2, Rpn6, and Rpn13 proteasome subunits C-terminally fused with GFP. Photoconversion of proteasome-fused Dendra2 was carried out as previously described (McKinney et al., 2009 Nat Methods. 131-133).
Cells were incubated for 20 min in fractionation buffer [20 mM HEPES pH 7.3, 10 mM KCl, 5 mM ATP, 5 mM MgCl2, and protease inhibitor cocktail (Roche)], followed by the addition of NP-40 (to 0.1%). They were then mixed thoroughly and centrifuged at 1,000×g for 5 min. The supernatant was collected as cytosolic fraction, and the pellet (nuclei) was washed twice with PBS. To dissolve the nuclear pellet, fractionation buffer supplemented with 0.5% sodium deoxycholate was added followed by sonication.
(§2) Cells were washed twice with ice cold PBS and scraped into lysis buffer (50 mM Tris-HCl, pH 7.4, 130 mM NaCl, 0.5% NP-40) supplemented with freshly added protease inhibitor cocktail, 5 mM ATP, 10 mM iodoacetamide, and 5 mM N-ethyl maleimide. Protein concentration was measured by the BCA assay according to the manufacturer's instructions (Pierce, Rockford, IL). 30 μg of cellular protein were resolved via SDS-PAGE, transferred to a nitrocellulose membrane and immunoblotted with the appropriate antibody.

proteasome = assay: Live imaging of proteasome activity probe Me4BodipyFL-Ahx3Leu3VS in cells; assay type: cell-based; conditions: added to the starvation medium
Procedure: Live cell proteasome activity was followed as previously described (Berkers et al., 2007, Mol Pharm; 4(5):739-48.). In brief, Me4BodipyFL-Ahx3Leu3VS was added to the medium to a final concentration of 1 μM. Following incubation for 15 min, the cells were visualized by a Zeiss LSM 700 confocal microscope. In vitro proteasome activity assay was carried out as previously described (Braten et al., 2016). In brief, cellular fractions were incubated at 37° C. for 30 min with 5 μM Suc-LLVY-AMC (Succinyl-Lu-Leu-Val-Tyr-amido-4-methylcoumarin) in a reaction buffer (40 mM Tris-HCl pH 7.2, 2 mM DTT, 5 mM MgCl2, 10 mM creatine phosphate, 0.1 mg/ml creatine phosphate kinase, 5 mM ATP). Reactions were stopped by adding 1% SDS, and fluorescence was measured at 360 nm/460 nm (ex/em).

ubiquitin adducts = assay: Western blot for ubiquitin adducts; assay type: cell-based; conditions: starved cells
Procedure: FIG. 5E. Western blot for ubiquitin adducts of extracts of cells treated as indicated. Intensities relative to control are presented.
as §2

cellular proteins [3] = assay: Proteomic analysis of cellular protein levels; assay type: cell-based, human; conditions: amino acid starvation
Procedure: 2-3 mg of cell extract protein in 8 M Urea and 100 mM ammonium bicarbonate, were incubated with DTT (2.8 mM; 30 min at 60° C.), modified with iodoacetamide (8.8 mM; 30 min at room temperature in the dark), and digested (overnight at 37° C.) with modified trypsin (Promega; 1:50 enzyme-to-substrate ratio) in 2 M Urea and 25 mM ammonium bicarbonate. Additional second trypsinization was carried out for 4 hours. The tryptic peptides were desalted using Sep-Pak C18 (Waters) and dried. 10 μg of protein were used for proteome analysis as described under Mass spectrometry.
Tryptic peptides were analyzed by LC-MS/MS using a Q Exactive plus mass spectrometer (Thermo Fisher Scientific) fitted with a capillary HPLC (easy nLC 1000, Thermo). […]
The mass spectrometry raw data were analyzed by the MaxQuant software (version 1.4.1.2, http://www.maxquant.org) for peak picking and quantification. […] The MaxQuant software was used for label-free semi-quantitative analysis [based on extracted ion currents (XICs) of peptides], enabling quantification from each LC/MS run for each peptide identified in any of the experiments. In samples that were SILAC-labeled, quantification was also carried out using the MaxQuant software. […]

exportin-1 = target: T1, exportin-1 (Homo sapiens, UniProt O14980); assay: Nuclear export of exportin-1 substrates (p65, APC, NES-GFP) in HeLa cells; assay type: cell-based; conditions: 8 h
T1 construct: endogenous in cells; host or cells: HeLa
Procedure: FIG. 4G. HeLa cells were incubated under the indicated conditions, and the β4 subunit of the proteasome as well as the p65 subunit of NF-κB—which is a CRM1 substrate—were visualized.
FIG. 4H. HeLa cells were incubated under the indicated conditions, and the β4 subunit of the proteasome as well as the CRM1 substrate APC (adenomatous polyposis coli) were visualized.
FIG. 4I. HeLa cells infected with GFP fused to a nuclear export signal (NES) were incubated for 8h under the indicated conditions. The GFP was visualized.
as §1

cancer cells = assay: Cell viability of stressed (starved) and non-stressed cancer cells, YWF versus 45 mM F or W
Procedure: Since tumor cells are inherently stressed—due to high metabolic demands and poor perfusion of nutrients and oxygen, starved cells in culture were used in order to simulate the effect of the different treatments. Similarly, to simulation of the effect of each treatment on “normal” tissues in vivo—which are not stressed—the same amino acid(s) were added to non-starved cells in culture.

tumors = assay: Tumor model in mice, YWF versus various concentrations of F; assay type: in vivo; conditions: various concentrations up to 45 mM
Procedure: The anti-tumorigenic effect of the indicated treatments was examined in vivo, using a tumor model in mice.
The inventors next aimed to assess the anti-tumorigenic effect of the above treatments in vivo, using a tumor model in mice. Following tumor formation, each group was treated with a different treatment, and the size of tumors was eventually compared relative to the control group (QLR).

T1 sequence (O14980 whole entry): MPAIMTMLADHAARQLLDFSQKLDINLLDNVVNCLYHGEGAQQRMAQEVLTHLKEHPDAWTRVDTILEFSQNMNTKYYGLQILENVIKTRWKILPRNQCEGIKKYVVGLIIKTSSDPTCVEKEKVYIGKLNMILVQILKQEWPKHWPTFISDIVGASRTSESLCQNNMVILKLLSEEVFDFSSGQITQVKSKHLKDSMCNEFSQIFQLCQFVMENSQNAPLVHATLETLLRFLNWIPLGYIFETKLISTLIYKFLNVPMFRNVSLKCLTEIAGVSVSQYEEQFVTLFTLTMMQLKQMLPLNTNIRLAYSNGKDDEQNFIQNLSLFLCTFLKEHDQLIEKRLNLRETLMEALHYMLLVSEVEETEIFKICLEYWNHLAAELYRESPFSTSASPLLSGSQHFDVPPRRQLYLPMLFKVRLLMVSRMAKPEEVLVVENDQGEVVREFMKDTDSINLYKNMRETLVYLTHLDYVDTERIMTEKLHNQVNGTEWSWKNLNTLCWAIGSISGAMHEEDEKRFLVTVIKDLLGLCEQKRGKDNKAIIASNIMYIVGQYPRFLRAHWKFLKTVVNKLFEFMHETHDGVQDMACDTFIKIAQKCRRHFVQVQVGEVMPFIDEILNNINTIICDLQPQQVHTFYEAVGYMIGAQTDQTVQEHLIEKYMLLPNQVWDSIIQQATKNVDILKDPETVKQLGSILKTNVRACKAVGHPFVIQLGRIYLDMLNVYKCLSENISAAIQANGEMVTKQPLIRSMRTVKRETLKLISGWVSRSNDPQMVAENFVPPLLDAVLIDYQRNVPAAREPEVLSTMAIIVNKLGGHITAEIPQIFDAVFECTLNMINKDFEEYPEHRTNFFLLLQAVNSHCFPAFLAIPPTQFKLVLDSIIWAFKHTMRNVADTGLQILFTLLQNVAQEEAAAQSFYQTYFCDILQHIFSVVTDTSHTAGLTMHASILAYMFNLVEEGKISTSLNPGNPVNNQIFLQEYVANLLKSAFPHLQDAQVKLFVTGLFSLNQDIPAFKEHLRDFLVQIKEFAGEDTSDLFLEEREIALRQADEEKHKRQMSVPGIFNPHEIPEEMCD

| SMILES | growth of MCF-7 cells (MCF-7) | starvation-induced stimulation of protein breakdown (cellular proteins [1]) | gain in amino acids produced by Torin1 [2] | proteasome distribution in cells lacking NUP93 (26S proteasome; NUP93 silenced, starvation) | proteasome localization without exogenous starvation (26S proteasome; non-stressed cells, complete medium) | starvation-induced proteasome translocation from the nucleus to the cytosol (26S proteasome) | migration of proteasomal activity from the nucleus (proteasome) | degradation and depletion of ubiquitin adducts (ubiquitin adducts) | starvation-induced reduction in the level of ~900 proteins (cellular proteins [3]) | cellular distribution of GFP fused to nuclear export signal (NES) (exportin-1) | elimination of stressed cancerous cells in culture (cancer cells) | benefit on tumor growth relative to control group (QLR) (tumors) |
| --- | --- | --- | --- | --- | --- | --- | --- | --- | --- | --- | --- | --- |
| N[C@@H](Cc1c[nH]c2cccc(F)c12)C(=O)O [L-(4-F) Trp] | completely inhibited the growth | – | – | – | – | – | – | – | – | – | – | – |
| CCC(=C/[C@H](C)C/C=C/C(C)=C/[C@@H](C)C(=O)[C@@H](C)[C@H](O)[C@@H](C)C/C(C)=C/C(=O)O)/C=C/[C@@H]1OC(=O)C=C[C@@H]1C [LMB, Leptomycin B] | – | inhibition of starvation-induced stimulation of protein breakdown | significantly inhibits the gain in amino acids | neither YWF nor LMB had a significant effect on its distribution | nuclear accumulation of the proteasome | inhibition of the translocation | inhibits the migration of proteasomal activity from the nucleus | inhibits degradation and depletion of ubiquitin adducts | prevented | leads to nuclear accumulation | – | – |
| N[C@@H](Cc1ccccc1)C(=O)O [Phe, Phenylalanine] | – | – | – | – | – | significant effect | – | – | – | – | clearly inferior to the mixture of YWF | did not result in any benefit |
